Measurements taken from PubChem BioAssay AID256 (DTP/NCI, 2004).
Toxic doses and inconclusive results are not listed. The calls were made as follows: active = survival T/C of 150% or more; inactive = T/C below 125% in these data.

Test system: CD2F1 mice, L1210 leukemia ip, survival T/C
Assay: NCI In Vivo Anticancer Drug Screen. Data for tumor model L1210 Leukemia (intraperitoneal) in CD2F1 (CDF1) mice
Settings: higher = longer survival
Method in brief: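 Tumor-bearing mice (transplanted tumor) were split into treated and vehicle control groups, and the measured endpoint of each treated group was divided by that of its vehicle controls.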

[1] = endpoint: mean survival time, dose: 100.0 mg/kg/injection, schedule: Q04DX003 (ip), vehicle: saline
[2] = endpoint: mean survival time, dose: 200.0 mg/kg/injection, schedule: Q04DX003 (ip), vehicle: saline
[3] = endpoint: mean survival time, dose: 400.0 mg/kg/injection, schedule: Q04DX003 (ip), vehicle: saline
[4] = endpoint: mean survival time, dose: 100.0 mg/kg/injection, schedule: Q01DX009 (ip), vehicle: saline
[5] = endpoint: mean survival time, dose: 200.0 mg/kg/injection, schedule: Q01DX009 (ip), vehicle: saline
[6] = endpoint: mean survival time, dose: 100.0 mg/kg/injection, schedule: Q04DX003 (ip), vehicle: saline with Tween-80
[7] = endpoint: mean survival time, dose: 200.0 mg/kg/injection, schedule: Q04DX003 (ip), vehicle: saline with Tween-80
[8] = endpoint: mean survival time, dose: 400.0 mg/kg/injection, schedule: Q04DX003 (ip), vehicle: saline with Tween-80
[9] = endpoint: mean survival time, dose: 100.0 mg/kg/injection, schedule: Q04DX002 (ip), vehicle: saline with Tween-80
[10] = endpoint: mean survival time, dose: 200.0 mg/kg/injection, schedule: Q04DX002 (ip), vehicle: saline with Tween-80
[11] = endpoint: mean survival time, dose: 400.0 mg/kg/injection, schedule: Q04DX002 (ip), vehicle: saline with Tween-80
[12] = endpoint: mean survival time, dose: 100.0 mg/kg/injection, schedule: Q01DX009 (ip), vehicle: saline with Tween-80
[13] = endpoint: mean survival time, dose: 200.0 mg/kg/injection, schedule: Q01DX009 (ip), vehicle: saline with Tween-80
[14] = endpoint: mean survival time, dose: 100.0 mg/kg/injection, schedule: Q01DX001 (ip), vehicle: saline with Tween-80
[15] = endpoint: mean survival time, dose: 200.0 mg/kg/injection, schedule: Q01DX001 (ip), vehicle: saline with Tween-80
[16] = endpoint: mean survival time, dose: 400.0 mg/kg/injection, schedule: Q01DX001 (ip), vehicle: saline with Tween-80
[17] = endpoint: mean survival time, dose: 400.0 mg/kg/injection, schedule: Q01DX009 (ip), vehicle: saline with Tween-80

Measured: T/C

CC1=CCC2(C)CCC(C(C)C)C2(O)CC1 (stereo not given)
inactive: [1] 101 % of control | [2] 93 % of control | [3] 102 % of control

CC1C2CCC(C2)C1CO (stereo not given)
inactive: endpoint: mean survival time, dose: 50.0 mg/kg/injection, schedule: Q01DX009 (ip), vehicle: saline 102 % of control | [4] 98 % of control | [5] 104 % of control

COc1ccc(-c2cc(C(=O)O)c3ccc(C)cc3n2)cc1
inactive: [6] 102 % of control | [7] 101 % of control | [8] 101 % of control

S=C(N/N=C1/CCCC/C1=N/NC(=S)N1CCOCC1)N1CCOCC1
inactive: endpoint: median survival time, dose: 1.5 mg/kg/injection, schedule: Q01DX009 (ip), vehicle: saline with Tween-80 95 % of control | endpoint: median survival time, dose: 3.0 mg/kg/injection, schedule: Q01DX009 (ip), vehicle: saline with Tween-80 96 % of control | endpoint: median survival time, dose: 6.0 mg/kg/injection, schedule: Q01DX009 (ip), vehicle: saline with Tween-80 108 % of control | endpoint: median survival time, dose: 12.0 mg/kg/injection, schedule: Q01DX009 (ip), vehicle: saline with Tween-80 109 % of control

CC(=O)OCC1OC(n2cnc(C(=O)O)c2N)C(OC(C)=O)C1OC(C)=O (stereo not given)
inactive: endpoint: median survival time, dose: 8.75 mg/kg/injection, schedule: Q01DX005 (ip), vehicle: saline 98 % of control | endpoint: median survival time, dose: 17.5 mg/kg/injection, schedule: Q01DX005 (ip), vehicle: saline 100 % of control | endpoint: median survival time, dose: 35.0 mg/kg/injection, schedule: Q01DX005 (ip), vehicle: saline 96 % of control | endpoint: median survival time, dose: 70.0 mg/kg/injection, schedule: Q01DX005 (ip), vehicle: saline 96 % of control | endpoint: median survival time, dose: 140.0 mg/kg/injection, schedule: Q01DX005 (ip), vehicle: saline 98 % of control

Cc1ccnc(NC2=CC(=O)C(=O)c3ccccc32)c1
inactive: endpoint: mean survival time, dose: 100.0 mg/kg/injection, schedule: Q01DX009 (ip), vehicle: saline sonified 108 % of control | endpoint: mean survival time, dose: 200.0 mg/kg/injection, schedule: Q01DX009 (ip), vehicle: saline sonified 103 % of control

O=C(O)C1C(=O)CC2(O)c3ccccc3-c3ccccc3C12 (stereo not given)
inactive: endpoint: mean survival time, dose: 100.0 mg/kg/injection, schedule: Q01DX001 (ip), vehicle: Klucel (hydroxypropylcellulose) (HPC) 98 % of control | [9] 96 % of control | endpoint: mean survival time, dose: 200.0 mg/kg/injection, schedule: Q01DX001 (ip), vehicle: Klucel (hydroxypropylcellulose) (HPC) 94 % of control | [10] 93 % of control | endpoint: mean survival time, dose: 400.0 mg/kg/injection, schedule: Q01DX001 (ip), vehicle: Klucel (hydroxypropylcellulose) (HPC) 94 % of control | [11] 93 % of control

CS(=O)(=O)c1cc([N+](=O)[O-])cc([N+](=O)[O-])c1Cl
inactive: endpoint: mean survival time, dose: 2.5 mg/kg/injection, schedule: Q01DX009 (ip), vehicle: saline with Tween-80 95 % of control | endpoint: mean survival time, dose: 5.0 mg/kg/injection, schedule: Q01DX009 (ip), vehicle: saline with Tween-80 91 % of control | endpoint: mean survival time, dose: 5.0 mg/kg/injection, schedule: Q04DX003 (ip), vehicle: saline with Tween-80 97 % of control | endpoint: mean survival time, dose: 10.0 mg/kg/injection, schedule: Q01DX009 (ip), vehicle: saline with Tween-80 96 % of control | endpoint: mean survival time, dose: 10.0 mg/kg/injection, schedule: Q04DX003 (ip), vehicle: saline with Tween-80 100 % of control

O=C(O)c1cccc(COc2ccc([N+](=O)[O-])cc2Cl)c1
inactive: [12] 101 % of control | [6] 91 % of control | [13] 93 % of control | [7] 86 % of control | [8] 97 % of control

Nc1ccc(S(=O)(=O)F)c(Cl)c1
inactive: [12] 97 % of control | [1] 95 % of control | [13] 100 % of control | [2] 101 % of control | [3] 95 % of control

CCOC(=O)C(S(C)(=O)=O)S(C)(=O)=O
inactive: endpoint: mean survival time, dose: 75.0 mg/kg/injection, schedule: Q01DX001 (ip), vehicle: saline with Tween-80 97 % of control | endpoint: mean survival time, dose: 150.0 mg/kg/injection, schedule: Q01DX001 (ip), vehicle: saline with Tween-80 108 % of control | endpoint: mean survival time, dose: 300.0 mg/kg/injection, schedule: Q01DX001 (ip), vehicle: saline with Tween-80 98 % of control

O=C(CCCN1CCC2(CC1)CC(=O)N(N1CCCC1)C2=O)c1ccc(F)cc1
inactive: [14] 108 % of control | [15] 116 % of control | [16] 116 % of control

Cc1ccc(S(=O)(=O)OCC(OS(=O)(=O)c2ccc(C)cc2)C2OC(c3ccccc3)OC2C2COC(c3ccccc3)O2)cc1 (stereo not given)
inactive: [12] 95 % of control | [13] 95 % of control | [17] 95 % of control

O=C(Nc1ccc([N+](=O)[O-])cc1)OCC#CC#CCOC(=O)Nc1ccc([N+](=O)[O-])cc1
inactive: endpoint: mean survival time, dose: 100.0 mg/kg/injection, schedule: Q04DX003 (ip), vehicle: Klucel (hydroxypropylcellulose) (HPC) 94 % of control | endpoint: mean survival time, dose: 200.0 mg/kg/injection, schedule: Q04DX003 (ip), vehicle: Klucel (hydroxypropylcellulose) (HPC) 94 % of control

O=C(Oc1c(Cl)c(Cl)c(Cl)c(Cl)c1Cl)c1ccc([N+](=O)[O-])cc1
inactive: [12] 101 % of control | [13] 97 % of control | [17] 95 % of control

C/C(=C\C(=O)C(C)(C)C)C(C)(C)C
inactive: [14] 93 % of control | [15] 96 % of control | [16] 96 % of control

CN(C)C1CC[N-]CC1.CN(C)C1CC[N-]CC1.[Cl][Pt+2][Cl]
inactive: endpoint: mean survival time, dose: 25.0 mg/kg/injection, schedule: Q04DX003 (ip), vehicle: saline 103 % of control | endpoint: mean survival time, dose: 50.0 mg/kg/injection, schedule: Q04DX003 (ip), vehicle: saline 109 % of control | [1] 114 % of control

Nc1ncnc2c1c1c(=O)[nH]c(=S)[nH]c1n2C1OC(CO)C(O)C1O (stereo not given)
inactive: endpoint: mean survival time, dose: 25.0 mg/kg/injection, schedule: Q01DX005 (ip), vehicle: water 94 % of control | endpoint: mean survival time, dose: 50.0 mg/kg/injection, schedule: Q01DX005 (ip), vehicle: water 100 % of control | endpoint: mean survival time, dose: 100.0 mg/kg/injection, schedule: Q01DX005 (ip), vehicle: water 103 % of control | endpoint: mean survival time, dose: 200.0 mg/kg/injection, schedule: Q01DX005 (ip), vehicle: water 105 % of control | endpoint: mean survival time, dose: 400.0 mg/kg/injection, schedule: Q01DX005 (ip), vehicle: water 114 % of control

COC(=O)C(CS)NC(=O)CCNC(C)=O (stereo not given)
inactive: endpoint: mean survival time, dose: 12.5 mg/kg/injection, schedule: Q01DX009 (ip), vehicle: water 97 % of control | endpoint: mean survival time, dose: 25.0 mg/kg/injection, schedule: Q01DX009 (ip), vehicle: water 100 % of control | endpoint: mean survival time, dose: 50.0 mg/kg/injection, schedule: Q01DX009 (ip), vehicle: water 97 % of control | endpoint: mean survival time, dose: 100.0 mg/kg/injection, schedule: Q01DX009 (ip), vehicle: water 104 % of control | endpoint: mean survival time, dose: 200.0 mg/kg/injection, schedule: Q01DX009 (ip), vehicle: water 100 % of control

NC(=O)N(CCO)CCO
inactive: [4] 111 % of control | [5] 107 % of control | endpoint: mean survival time, dose: 400.0 mg/kg/injection, schedule: Q01DX009 (ip), vehicle: saline 101 % of control

Cc1c([C@H](C)[C@@H]2NC[C@@H](C)C[C@H]2O)ccc2c1C[C@H]1[C@H]2CC=C2C[C@@H](O)CC[C@@]21C
inactive: endpoint: mean survival time, dose: 2.5 mg/kg/injection, schedule: Q01DX009 (ip), vehicle: Klucel (hydroxypropylcellulose) (HPC) 96 % of control | endpoint: mean survival time, dose: 5.0 mg/kg/injection, schedule: Q01DX009 (ip), vehicle: Klucel (hydroxypropylcellulose) (HPC) 102 % of control

CCN(CC)CCNCc1c[nH]c(=S)[nH]c1=O
inactive: [1] 103 % of control | [2] 97 % of control | [3] 101 % of control

CCCCOC(=O)c1c(C(=O)OCCCC)c(-c2ccccc2)c2c(c1-c1ccccc1)-c1cccc3cccc-2c13
inactive: [9] 97 % of control | [10] 86 % of control | [11] 90 % of control

CC(=O)c1c(C(=O)O)c(=O)oc2cc(O)ccc12
inactive: endpoint: mean survival time, dose: 75.0 mg/kg/injection, schedule: Q01DX001 (ip), vehicle: saline 98 % of control | endpoint: mean survival time, dose: 150.0 mg/kg/injection, schedule: Q01DX001 (ip), vehicle: saline 98 % of control | endpoint: mean survival time, dose: 300.0 mg/kg/injection, schedule: Q01DX001 (ip), vehicle: saline 98 % of control
